Source: US20150181873A1, “HERBICIDE-RESISTANT SUNFLOWER PLANTS, POLYNUCLEOTIDES ENCODING HERBICIDE=RESISTANT ACETO HYDROXY ACID SYNTHASE LARGE SUBUNIT PROTEINS, AND METHODS OF USE” (NIDERA S.A., priority 2013, published 2015)
“And” between values parts separate entries of the source, which are not always exact repeats. Identical values can stand only once.

Key:
Type in all cases: in vivo, Helianthus annuus
Sunflower line S4897 = test: Greenhouse spray injury rating, line S4897; details: imazapyr 360 gm ai/ha (column 360/240)
Description: (§1) Sunflower lines S4897, Clearfield® sunflower varieties A, B, C and a conventional non-Clearfield variety were sprayed with three rates of imazamox (Raptor™), 100, 200 and 300 gm ai/ha plus 0.5% Sun It II and two rates of imazapyr (Arsenal™) 160 and 360 gm ai/ha plus 0.5% Sun It II when the plants were at the two to three leaf stage. Ratings were taken at 14 days after application (DAT) for injury. Injury was rated on a scale from 0 to 9 where 0=no injury to 9=dead plant. Twelve plants were sprayed per herbicide/rate treatment. Statistical analysis was conducted with STATGRAPHICS Plus 5.0 by using ANOVA and LSD procedures.
(§2) After plants were sprayed, it was realized that a height difference between S4897 and other sunflower varieties would have impacted the actual herbicide dose that was delivered. The spray boom height had been calibrated against S4897 and since the other varieties were taller and closer to the boom they would have received a greater dose of herbicide. Rates were recalibrated for the other varieties to determine the approximate dose they would have received. Assessments were made as presented in Table 2 since it was not possible to make a direct rate comparison due to the effect of the height. For example injury scores were compare for S4897 treated imazamox rate 100 gm ai/ha to the other varieties treated at 75 gm ai/ha. The treatment dose of 300 gm ai/ha for line S4897 was equivalent to the treatment of 200 gm ai/ha for the other varieties, which […].

[1] = tested on: Conventional non-Clearfield sunflower variety; test: Greenhouse spray injury rating, conventional variety; details: imazapyr 240 gm ai/ha, scale 0-9
Description: as §1, §2

[2] = tested on: sunflower line GIM 5-7 (A205V); test: Greenhouse imazapir dose response, GIM 5-7; details: GIM5-7 (A205V), 14 DAT
Description: (§3) A greenhouse study was conducted to quantify and contrast the imazapir sensivity of the mutants A122T and A205V in different genetic backgrounds at the whole plant level in sunflower. Seeds of the different sunflower lines that were used in this study were obtained under field conditions.
(§4) Seeds were sown in Petri dishes and, after germination, plantlets were transplanted to pots of 10 cm of diameter in a potting media consisting of equal parts of vermiculite, soil and sand. Plants were grown in a greenhouse under natural light conditions supplemented with 400 W sodium halide lamps to provide a 16 hrs daylength. Day/night temperatures were 25 and 20° C., respectively. At the V2 stage 10 plants of each genotype were randomly assigned to each treatment consisting of […] imazapir doses (0, 40, 80, 160, 240, 320, 400 and 480 g ai/ha), and a zero-time biomass determination. Experiment was arranged as a randomized block design with a full factorial (sunflower line×treatment) arrangement of treatments and 10 replications.
(§5) On the day of herbicide application ten plants of each genotype were cut at the cotyledonal node and dried at 60° C. for 48 hrs zero-time for dried weight determination. […] Height was determined as the distance between the cotyledonal node and the apex of each plant. For root biomass determination, each plant was taken from the pot and the potting media was washed out from the roots. Above ground biomass data from each line were converted to biomass accumulation after application by subtracting the appropriate average zero-time biomass from each sample. Dry biomass data were converted to percentages of the untreated control plants within each line to allow direct comparisons between groups.

[3] = tested on: sunflower genotypes carrying the A205V mutation event; test: Greenhouse imazapir dose response, A205V genotypes together; details: 14 DAT; for biomass accumulation, Dif with control / plant height, Dif with Control / root dry weight, Dif with control: A205V mean; for biomass accumulation, % of untreated, Mean / root dry weight, % of untreated, Mean / plant height, % of untreated, Mean: six A205V genotypes; for Phytotoxicity Index, Mean: three A205V genotypes
Description: as §3, §4, §5

## CC(C)C1(C)N=C(c2ncccc2C(=O)O)NC1=O (centres unmarked) [Imazapyr, imazapyr]
Sunflower line S4897; scale 0-9
  Injury at 14 DAT: 0.8 a
Sunflower line S4897; scale 0-9, listed as imazapyr
  Injury at 14 DAT: very little injury
[1]
  Injury at 14 DAT: 8.2 days
[2]; 0.5x (40 g ai/ha)
  biomass accumulation, % of untreated: 92.9%
  plant height, % of untreated: 79.1%
  root dry weight, % of untreated: 79.2%
[2]; 1x (80 g ai/ha)
  biomass accumulation, % of untreated: 75.1%
  plant height, % of untreated: 76.7%
  root dry weight, % of untreated: 56.3%
[2]; 2x (160 g ai/ha)
  biomass accumulation, % of untreated: 55.1%
  plant height, % of untreated: 57.7%
  root dry weight, % of untreated: 40.6%
[2]; 3x (240 g ai/ha)
  biomass accumulation, % of untreated: 45.6%
  plant height, % of untreated: 55.3%
  root dry weight, % of untreated: 40.2%
[2]; 4x (320 g ai/ha)
  biomass accumulation, % of untreated: 31.8%
  plant height, % of untreated: 27.3%
  root dry weight, % of untreated: 34.0%
[2]; 5x (400 g ai/ha)
  biomass accumulation, % of untreated: 34.2%
  plant height, % of untreated: 37.2%
  root dry weight, % of untreated: 48.5%
[2]; 6x (480 g ai/ha)
  biomass accumulation, % of untreated: 36.8%
  plant height, % of untreated: 30.0%
  root dry weight, % of untreated: 43.1%
[3]; 0.5x (40 g ai/ha)
  biomass accumulation, Dif with control: 5.5%
  plant height, Dif with Control: 5.6%
  root dry weight, Dif with control: 12.8%
  biomass accumulation, % of untreated, Mean: 94.5%
  root dry weight, % of untreated, Mean: 87.2%
  Phytotoxicity Index, Mean: 0
[3]; 1x (80 g ai/ha)
  biomass accumulation, Dif with control: 17.8%
  plant height, Dif with Control: 10.8%
  root dry weight, Dif with control: 29.2%
  biomass accumulation, % of untreated, Mean: 82.2%
  root dry weight, % of untreated, Mean: 70.8%
  Phytotoxicity Index, Mean: 0
[3]; 2x (160 g ai/ha)
  biomass accumulation, Dif with control: 38.4%
  plant height, Dif with Control: 30.8%
  root dry weight, Dif with control: 49.4%
  biomass accumulation, % of untreated, Mean: 61.6%
  plant height, % of untreated, Mean: 69.2%
  root dry weight, % of untreated, Mean: 50.6%
  Phytotoxicity Index, Mean: 2.2
[3]; 3x (240 g ai/ha)
  biomass accumulation, Dif with control: 52.4%
  plant height, Dif with Control: 49.6%
  root dry weight, Dif with control: 60.8%
  biomass accumulation, % of untreated, Mean: 47.6%
  plant height, % of untreated, Mean: 50.4%
  root dry weight, % of untreated, Mean: 39.2%
  Phytotoxicity Index, Mean: 5.1
[3]; 4x (320 g ai/ha)
  biomass accumulation, Dif with control: 64.6%
  plant height, Dif with Control: 66.3%
  root dry weight, Dif with control: 68.9%
  biomass accumulation, % of untreated, Mean: 35.4%
  plant height, % of untreated, Mean: 33.7%
  root dry weight, % of untreated, Mean: 31.1%
  Phytotoxicity Index, Mean: 7.4
[3]; 5x (400 g ai/ha)
  biomass accumulation, Dif with control: 67.6%
  plant height, Dif with Control: 68.0%
  root dry weight, Dif with control: 69.3%
  biomass accumulation, % of untreated, Mean: 32.4%
  plant height, % of untreated, Mean: 32.0%
  root dry weight, % of untreated, Mean: 30.7%
  Phytotoxicity Index, Mean: 8.2
[3]; 6x (480 g ai/ha)
  biomass accumulation, Dif with control: 70.0%
  root dry weight, Dif with control: 75.6%
  biomass accumulation, % of untreated, Mean: 30.0%
  plant height, % of untreated, Mean: 30.2%
  root dry weight, % of untreated, Mean: 24.4%
  Phytotoxicity Index, Mean: 8.2
[3]; 6x (480 g ai/ha), listed as imazapir
  plant height, Dif with Control: 68.9% and 69.8%
